# Data as given in ChEMBL document CHEMBL1201862, “PubChem BioAssay data set” (2004).
#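 Test compounds were applied to cells in 96-well plates for 48 hours at 5 doses. Here, GI50 denotes the concentration required for 50% inhibition of growth.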 The source made the active and inactive calls. Cut-off read from the data, not from the text of the source: active = GI50 up to about 1.1 µM and inactive = higher.
# How the values were obtained:
# Assay in all cases: DTP human tumour cell line panel, 48 h
# [1] = test system: HOP-62
# [2] = test system: SNB-19
# [3] = test system: KM-20L2
# [4] = test system: SN12C
# [5] = test system: DLD-1
# [6] = test system: COLO 205
# [7] = test system: HCC 2998
# [8] = test system: NCI-H522
# [9] = test system: NCI-H226
# [10] = test system: RXF 631
# [11] = test system: DMS-114
# [12] = test system: SK-MEL-28
# [13] = test system: UACC-62
# [14] = test system: ACHN
# [15] = test system: A498
# [16] = test system: IGROV-1
# [17] = test system: KM12
# [18] = test system: OVCAR-3
# [19] = test system: HCT-15
# [20] = test system: HL-60
# [21] = test system: SF-539
# [22] = test system: SW-620
# [23] = test system: CAKI-1
# [24] = test system: TK-10
# [25] = test system: 786-0
# [26] = test system: NCI-H460
# [27] = test system: SF-268
# [28] = test system: LXFL 529
# [29] = test system: RPMI-8226
# [30] = test system: K562
# [31] = test system: SNB-78
# [32] = test system: OVCAR-4
# [33] = test system: LOX IMVI
# [34] = test system: SK-MEL-5
# [35] = test system: UO-31
# [36] = test system: CCRF-CEM
# [37] = test system: OVCAR-8
# [38] = test system: RXF 393
# [39] = test system: XF498
# [40] = test system: M14
# [41] = test system: SF-295
# [42] = test system: SNB-75
# [43] = test system: Malme-3M
# [44] = test system: HT-29
# [45] = test system: UACC-257
# [46] = test system: SK-MEL-2
# [47] = test system: HOP-92
# [48] = test system: M19-MEL
# [49] = test system: SK-OV-3
# [50] = test system: OVCAR-5
# [51] = test system: NCI-H23
# [52] = test system: HCT-116
# [53] = test system: U-251
# [54] = test system: MOLT-4
# [55] = test system: A549
# [56] = test system: EKVX
# [57] = test system: SR
# [58] = test system: DMS-273
structure (smiles),measurement,setting,value
N#C/C(=C\c1cc(OCc2ccccc2)c(OCc2ccccc2)cn1)C(N)=O,GI50,[1],> 100 µM (inactive)
same,GI50,[2],> 100 µM (inactive)
same,GI50,[3],> 100 µM (inactive)
same,GI50,[4],> 100 µM (inactive)
same,GI50,[5],> 100 µM (inactive)
same,GI50,[6],> 100 µM (inactive)
same,GI50,[7],> 100 µM (inactive)
same,GI50,[8],19.1 µM (inactive)
same,GI50,[9],> 100 µM (inactive)
same,GI50,[10],> 100 µM (inactive)
same,GI50,[11],81.3 µM (inactive)
same,GI50,[12],> 100 µM (inactive)
same,GI50,[13],> 100 µM (inactive)
same,GI50,[14],> 100 µM (inactive)
same,GI50,[15],> 100 µM (inactive)
same,GI50,[16],> 100 µM (inactive)
same,GI50,[17],> 100 µM (inactive)
same,GI50,[18],> 100 µM (inactive)
same,GI50,[19],> 100 µM
same,GI50,[20],16 µM (inactive)
same,GI50,[21],> 100 µM (inactive)
same,GI50,[22],> 100 µM (inactive)
same,GI50,[23],> 100 µM (inactive)
same,GI50,[24],> 100 µM (inactive)
same,GI50,[25],> 100 µM (inactive)
same,GI50,[26],> 100 µM (inactive)
same,GI50,[27],> 100 µM (inactive)
same,GI50,[28],> 100 µM (inactive)
same,GI50,[29],36.6 µM (inactive)
same,GI50,[30],26.2 µM (inactive)
same,GI50,[31],> 100 µM (inactive)
same,GI50,[32],> 100 µM (inactive)
same,GI50,[33],30.5 µM (inactive)
same,GI50,[34],> 100 µM (inactive)
same,GI50,[35],> 100 µM (inactive)
same,GI50,[36],32.1 µM (inactive)
same,GI50,[37],> 100 µM (inactive)
same,GI50,[38],> 100 µM (inactive)
same,GI50,[39],> 100 µM (inactive)
same,GI50,[40],> 100 µM (inactive)
same,GI50,[41],> 100 µM (inactive)
same,GI50,[42],36.7 µM (inactive)
same,GI50,[43],> 100 µM (inactive)
same,GI50,[44],> 100 µM (inactive)
same,GI50,[45],> 100 µM (inactive)
same,GI50,[46],> 100 µM (inactive)
same,GI50,[47],85.7 µM (inactive)
same,GI50,[48],> 100 µM (inactive)
same,GI50,[49],> 100 µM (inactive)
same,GI50,[50],> 100 µM (inactive)
same,GI50,[51],> 100 µM (inactive)
same,GI50,[52],35.5 µM (inactive)
same,GI50,[53],> 100 µM (inactive)
same,GI50,[54],23.3 µM (inactive)
same,GI50,[55],> 100 µM (inactive)
same,GI50,[56],> 100 µM (inactive)
COc1ccc(C(Cl)=C(c2ccc(OCCN(C)C)cc2)c2ccc(OCCN(C)C)cc2)cc1,GI50,[1],3.14 µM (inactive)
same,GI50,[2],2.42 µM (inactive)
same,GI50,[3],1.36 µM (inactive)
same,GI50,[4],2.65 µM (inactive)
same,GI50,[5],2.51 µM (inactive)
same,GI50,[6],1.39 µM (inactive)
same,GI50,[7],2.26 µM (inactive)
same,GI50,[8],1.57 µM (inactive)
same,GI50,[9],1.61 µM (inactive)
same,GI50,[10],0.322 µM (active)
same,GI50,[11],1.6 µM (inactive)
same,GI50,[12],1.63 µM (inactive)
same,GI50,[13],1.7 µM (inactive)
same,GI50,[14],1.82 µM (inactive)
same,GI50,[16],3.03 µM (inactive)
same,GI50,[17],1.37 µM (inactive)
same,GI50,[18],2.09 µM (inactive)
same,GI50,[19],1.59 µM
same,GI50,[20],1.83 µM (inactive)
same,GI50,[21],1.57 µM (inactive)
same,GI50,[22],1.35 µM (inactive)
same,GI50,[23],4.6 µM (inactive)
same,GI50,[24],17.1 µM (inactive)
same,GI50,[25],1.27 µM (inactive)
same,GI50,[26],1.82 µM (inactive)
same,GI50,[27],1.84 µM (inactive)
same,GI50,[29],1.62 µM (inactive)
same,GI50,[30],1.37 µM (inactive)
same,GI50,[31],1.71 µM (inactive)
same,GI50,[32],2.49 µM (inactive)
same,GI50,[34],1.73 µM (inactive)
same,GI50,[35],1.58 µM (inactive)
same,GI50,[36],1.16 µM (inactive)
same,GI50,[37],1.87 µM (inactive)
same,GI50,[38],1.13 µM (inactive)
same,GI50,[39],1.46 µM (inactive)
same,GI50,[57],1.36 µM (inactive)
same,GI50,[40],1.5 µM (inactive)
same,GI50,[41],1.74 µM (inactive)
same,GI50,[42],1.44 µM (inactive)
same,GI50,[43],1.81 µM (inactive)
same,GI50,[44],1.49 µM (inactive)
same,GI50,[46],1.68 µM (inactive)
same,GI50,[47],2.16 µM (inactive)
same,GI50,[49],2.53 µM (inactive)
same,GI50,[50],1.73 µM (inactive)
same,GI50,[51],1.73 µM (inactive)
same,GI50,[52],1.13 µM (inactive)
same,GI50,[53],1.58 µM (inactive)
same,GI50,[54],1.22 µM (inactive)
same,GI50,[55],1.83 µM (inactive)
same,GI50,[58],1.86 µM (inactive)
same,GI50,[56],5.11 µM (inactive)
O=C(Cc1nc2ccccc2s1)NC12CC3CC(CC(C3)C1)C2,GI50,[1],> 100 µM (inactive)
same,GI50,[2],> 100 µM (inactive)
same,GI50,[3],> 100 µM (inactive)
same,GI50,[4],> 100 µM (inactive)
same,GI50,[5],> 100 µM (inactive)
same,GI50,[7],> 100 µM (inactive)
same,GI50,[8],> 100 µM (inactive)
same,GI50,[9],> 100 µM (inactive)
same,GI50,[10],> 100 µM (inactive)
same,GI50,[12],> 100 µM (inactive)
same,GI50,[13],> 100 µM (inactive)
same,GI50,[14],> 100 µM (inactive)
same,GI50,[15],> 100 µM (inactive)
same,GI50,[17],> 100 µM (inactive)
same,GI50,[19],> 100 µM
same,GI50,[20],> 100 µM (inactive)
same,GI50,[21],> 100 µM (inactive)
same,GI50,[22],> 100 µM (inactive)
same,GI50,[23],> 100 µM (inactive)
same,GI50,[24],> 100 µM (inactive)
same,GI50,[25],> 100 µM (inactive)
same,GI50,[26],> 100 µM (inactive)
same,GI50,[27],> 100 µM (inactive)
same,GI50,[28],> 100 µM (inactive)
same,GI50,[30],> 100 µM (inactive)
same,GI50,[31],> 100 µM (inactive)
same,GI50,[32],> 100 µM (inactive)
same,GI50,[33],> 100 µM (inactive)
same,GI50,[35],> 100 µM (inactive)
same,GI50,[36],> 100 µM (inactive)
same,GI50,[37],> 100 µM (inactive)
same,GI50,[57],> 100 µM (inactive)
same,GI50,[40],> 100 µM (inactive)
same,GI50,[41],> 100 µM (inactive)
same,GI50,[42],> 100 µM (inactive)
same,GI50,[43],> 100 µM (inactive)
same,GI50,[44],> 100 µM (inactive)
same,GI50,[45],> 100 µM (inactive)
same,GI50,[46],> 100 µM (inactive)
same,GI50,[47],> 100 µM (inactive)
same,GI50,[48],> 100 µM (inactive)
same,GI50,[49],> 100 µM (inactive)
same,GI50,[51],> 100 µM (inactive)
same,GI50,[52],> 100 µM (inactive)
same,GI50,[53],> 100 µM (inactive)
same,GI50,[54],> 100 µM (inactive)
same,GI50,[55],> 100 µM (inactive)
same,GI50,[58],> 100 µM (inactive)
same,GI50,[56],> 100 µM (inactive)
